# Data taken from US20160304556A1, “[…] ACTIVE COMPOUNDS AND THEIR METHODS OF USE” (AGIOS PHARMACEUTICALS, INC, priority 2012, published 2016).
# Legend:
# IDH1 R132H = IDH1 R132H (Homo sapiens, UniProt O75874, R132H); experiment: In vitro NADPH depletion assay for IDH1m R132H inhibitors; type: biochemical; conditions: enzyme, diaphorase/resazurin readout, read-out: IDH R132H IC50
# Procedure: (§1) A test compound is prepared as 10 mM stock in DMSO and diluted to 50× final concentration in DMSO, for a 50 μl reaction mixture. IDH enzyme activity converting alpha-ketoglutarate to 2-hydroxyglutaric acid is measured using a NADPH depletion assay. In the assay the remaining cofactor is measured at the end of the reaction with the addition of a catalytic excess of diaphorase and resazurin, to generate a fluorescent signal in proportion to the amount of NADPH remaining. IDH1-R132 homodimer enzyme is diluted to […] in 40 μl of Assay Buffer(150 mM NaCl, 20 mM Tris-Cl pH 7.5, 10 mM MgCl2, 0.05% BSA, 2 mM b-mercaptoethanol); 1 μl of test compound dilution in DMSO is added and the mixture is incubated for 60 minutes at room temperature. The reaction is started with the addition of 10 μl of Substrate Mix ([…], 5 mM alpha-ketoglutarate, in Assay Buffer) and the mixture is incubated for 90 minutes at room temperature. The reaction is terminated with the addition of 25 μl of Detection Buffer (36 μg/ml diaphorase, […], in 1× Assay Buffer), and is incubated for 1 minute before reading on a SpectraMax platereader at Ex544/Em590.
# (§2) Representative compounds of formula I set forth in Table 1 were tested in this assay and the results are set forth below in Table 3.
# IDH1 R132C = IDH1 R132C (Homo sapiens, UniProt O75874, R132C); experiment: In vitro NADPH depletion assay for IDH1m R132C inhibitors; type: biochemical; conditions: enzyme, diaphorase/resazurin readout, read-out: IDH R132C IC50
# IDH1 R132C, sequence (O75874 whole entry R132C): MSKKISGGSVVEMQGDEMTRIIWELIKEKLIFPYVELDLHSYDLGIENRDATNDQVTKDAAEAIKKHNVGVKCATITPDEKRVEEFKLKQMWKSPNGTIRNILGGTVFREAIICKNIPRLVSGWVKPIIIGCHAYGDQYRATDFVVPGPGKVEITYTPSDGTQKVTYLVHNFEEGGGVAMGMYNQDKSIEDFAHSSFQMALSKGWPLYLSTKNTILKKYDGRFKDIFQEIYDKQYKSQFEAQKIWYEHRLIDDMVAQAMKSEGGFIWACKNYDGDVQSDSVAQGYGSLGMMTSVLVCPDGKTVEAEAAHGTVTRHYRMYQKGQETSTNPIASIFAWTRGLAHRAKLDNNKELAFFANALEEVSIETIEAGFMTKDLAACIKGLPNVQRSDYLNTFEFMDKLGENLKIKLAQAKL
# Procedure: as §1
# Compounds are assayed for their activity against IDH1 R132C following the same assay as above with the following modifications: Assay Buffer is (50 mM potassium phosphate, pH 6.5; 40 mM sodium carbonate, 5 mM MgCl2, 10% glycerol, 2 mM b-mercaptoethanol, and 0.03% BSA). The concentration of NADPH and alpha-ketoglutarate in the Substrate Buffer is 20 μM and 1 mM, respectively.
# as §2
# HT1080 cells = experiment: Cellular assay, inhibition of 2-HG production (LC-MS) in HT1080 cells; type: cell-based; conditions: Homo sapiens, HT-1080, 48 hours, LC-MS of media
# Procedure: Cells (HT1080 or U87MG) are grown in T125 flasks in DMEM containing 10% FBS, 1× penicillin/streptomycin and 500 ug/mL G418 (present in U87MG cells only). They are harvested by trypsin and seeded into 96 well white bottom plates at a density of 5000 cell/well in 100 μl/well in DMEM with 10% FBS. No cells are placed in columns 1 and 12. Cells are incubated overnight at 37° C. in 5% CO2. The next day test compounds are made up at 2× the final concentration and 100 μl are added to each cell well. The final concentration of DMSO is 0.2% and the DMSO control wells are plated in row G. The plates are then placed in the incubator for 48 hours. At 48 hours, 100 μl of media is removed from each well and analyzed by LC-MS for 2-HG concentrations. The cell plate is placed back in the incubator for another 24 hours. At 72 hours post compound addition, 10 mL/plate of Promega Cell Titer Glo reagent is thawed and mixed. The cell plate is removed from the incubator and allowed to equilibrate to room temperature. Then 100 μl of Promega Cell Titer Glo reagent is added to each well of media. The cell plate is then placed on an orbital shaker for 10 minutes and then allowed to sit at room temperature for 20 minutes. The plate is then read for luminescence with an integration time of 500 ms.
# The IC50 for inhibition of 2-HG production (concentration of test compound to reduce 2HG production by 50% compared to control) in these two cell lines for various compounds of formula I is set forth in Table 2 above.
# IDH1 R132H, sequence (O75874 whole entry R132H): as the sequence (O75874 whole entry R132C) above, with C132H counted along it
SMILES,IC50 (IDH1 R132H) [nM],IC50 (IDH1 R132C) [nM],IC50 (HT1080 cells) [nM]
"COC(=O)N1CCN(C(C)=O)C[C@H]1C(=O)N(c1cccc(F)c1)[C@@H](C(=O)NC1CC(F)(F)C1)c1ccccc1Cl [Compound 67, (S)-Methyl 4-acetyl-2-(((R)-1-(2-chlorophenyl)-2-(3,3-difluorocyclobutylamino)-2-oxoethyl)(3-fluorophenyl)carbamoyl)piperazine-1-carboxylate]",100 to 500,100 to 500,
O=C(NC1CC(F)(F)C1)C(c1ccccc1Cl)N(C(=O)Cn1ccnc1CO)c1cccc(F)c1 (stereo not shown) [Compound 72],100 to 500,500 to 1000,
O=C(NC1CC(F)(F)C1)C(c1ccccc1Cl)N(C(=O)Cn1cncn1)c1cccc(F)c1 (stereo not shown) [Compound 36],100 to 500,1000 to 2000,
COC(=O)N1CCOC[C@H]1C(=O)N(c1cccc(F)c1)[C@H](C(=O)NC1CCCCC1)c1ccccc1C [Compound 23],,≤ 100,≤ 100
COC(=O)NCC(=O)N(c1cccc(F)c1)C(C(=O)NC1CC(F)(F)C1)c1c(F)cccc1Cl (stereo not shown) [Compound 77],100 to 500,500 to 1000,
O=C(NC1CC(F)(F)C1)C(c1ccccc1Cl)N(C(=O)[C@@H]1CCCc2nccn21)c1cccc(F)c1 (stereo in doubt) [Compound 41],≤ 100,,100 to 500
"O=C(NC1CCCCC1)C(c1ccccc1Cl)N(C(=O)C1CCc2ccccc2N1)c1cccc(F)c1 (stereo not shown) [Compound 31, N-(1-(2-chlorophenyl)-2-(cyclohexylamino)-2-oxoethyl)-N-(3-fluorophenyl)-1,2,3,4-tetrahydroquinoline-2-carboxamide]",≤ 100,,100 to 500
"O=C(NC1CCCCC1)C(c1ccc(F)cc1F)N(C(=O)Cn1cnc(Cl)c1Cl)c1ccc(F)c(F)c1 (stereo not shown) [Compound 30, N-cyclohexyl-2-(2-(4,5-dichloro-1H-imidazol-1-yl)-N-(3,4-difluorophenyl)acetamido)-2-(2,4-difluorophenyl)acetamide]",100 to 500,,500 to 1000
Cc1ccccc1C(C(=O)NC1CCC(F)(F)CC1)N(C(=O)Cn1ccnc1C(F)(F)F)c1cccc(F)c1 (stereo not shown) [Compound 11],100 to 500,,500 to 1000
O=C(NC1CC(F)(F)C1)[C@H](c1ccccc1Cl)N(C(=O)[C@@H]1CCN1c1ncccn1)c1cccc(F)c1 [Compound 103],1000 to 2000,500 to 1000,
COC(=O)N(C)[C@@H](C)C(=O)N(c1cccc(F)c1)[C@H](C(=O)NC1CCCCC1)c1ccccc1C [Compound 5],≤ 100,,500 to 1000
"COC(=O)NCC(=O)N(c1cccc(F)c1)[C@H](C(=O)N[C@H]1CCCC(F)(F)C1)c1ccccc1Cl (single isomer, unassigned) [Compound 94, methyl 2-((1-(2-chlorophenyl)-2-(3,3-difluorocyclohexylamino)-2-oxoethyl) (3-fluoro-phenyl)amino)-2-oxoethylcarbamate]",100 to 500,100 to 500,
"COC(=O)N1CCNC[C@H]1C(=O)N(c1cccc(F)c1)[C@H](C(=O)NC1CC(F)(F)C1)c1ccccc1Cl [Compound 62, (S)-Methyl 2-(((S)-1-(2-chlorophenyl)-2-(3,3-difluorocyclobutylamino)-2-oxoethyl) -(3-fluoro-phenyl)carbamoyl)piperazine-1-carboxylate]",100 to 500,,1000 to 2000
"COC(=O)N1CCC[C@H]1C(=O)N(c1cccc(F)c1)[C@H](C(=O)NC1CC(F)(F)C1)c1ccccc1Cl [Compound 42, (S)-methyl 2-(((S)-1-(2-chlorophenyl)-2-((3,3-difluorocyclobutyl)amino)-2-oxoethyl)(3-fluorophenyl)carbamoyl)pyrrolidine-1-carboxylate]",≤ 100,,100 to 500
O=C(NC1CC(F)(F)C1)C(c1ccccc1Cl)N(C(=O)CNc1cccnc1F)c1cccc(F)c1 (stereo not shown) [Compound 47],≤ 100,,100 to 500
"O=C(NC1CC(F)(F)C1)C(c1ccccc1Cl)N(C(=O)c1ccnn1-c1ncccn1)c1cccc(F)c1 (stereo not shown) [Compound 116, N-(1-(2-chlorophenyl)-2-((3,3-difluorocyclobutyl)amino)-2-oxoethyl)-N-(3-fluorophenyl)-1-(pyrimidin-2-yl)-1H-pyrazole-5-carboxamide]",500 to 1000,100 to 500,
"COC(=O)NCC(=O)N(c1cccc(F)c1)[C@H](C(=O)N[C@@H]1CCCC(F)(F)C1)c1ccccc1Cl (single isomer, unassigned) [Compound 95, methyl 2-((1-(2-chlorophenyl)-2-(3,3-difluorocyclohexylamino)-2-oxoethyl) (3-fluoro-phenyl)amino)-2-oxoethylcarbamate]",100 to 500,100 to 500,

# Second part, the compound after the results:
IC50 (IDH1 R132H) [nM],IC50 (IDH1 R132C) [nM],IC50 (HT1080 cells) [nM],SMILES
500 to 1000,1000 to 2000,,COC(=O)NCC(=O)N(c1cccc(F)c1)C(C(=O)NC1CC(F)(F)C1)c1c(F)cccc1F (stereo not shown) [Compound 78]
100 to 500,100 to 500,1000 to 2000,COC(=O)N[C@@H](CO)C(=O)N(c1cccc(F)c1)C(C(=O)NC1CCC(F)(F)CC1)c1ccccc1Cl (stereo partly shown) [Compound 101]
100 to 500,100 to 500,,COC(=O)NCC(=O)N(c1cccc(F)c1)C(C(=O)NC1CC(F)(F)C1)c1c(Cl)cccc1Cl (stereo not shown) [Compound 76]
100 to 500,100 to 500,,"COC(=O)N1CCN(C)C[C@H]1C(=O)N(c1cccc(F)c1)[C@H](C(=O)NC1CC(F)(F)C1)c1ccccc1Cl [Compound 80, (S)-Methyl 2-(((S)-1-(2-chlorophenyl)-2-(3,3-difluorocyclobutylamino)-2-oxoethyl)-(3-fluorophenyl)carbamoyl)-4-methylpiperazine-1-carboxylate]"
100 to 500,500 to 1000,,COC(=O)N1C[C@@H](N)C[C@H]1C(=O)N(c1cccc(F)c1)[C@H](C(=O)NC1CC(F)(F)C1)c1ccccc1Cl [Compound 89]
100 to 500,500 to 1000,,COC(=O)N[C@@H](CO)C(=O)N(c1cccc(F)c1)C(C(=O)NC1CC(F)(F)C1)c1ccccc1Cl (stereo partly shown) [Compound 56]
100 to 500,,1000 to 2000,"Cc1nccn1CC(=O)N(c1cccc(-c2nnco2)c1)C(C(=O)NC1CCCCC1)c1ccccc1Cl (stereo not shown) [Compound 25, N-(3-(1,3,4-oxadiazol-2-yl)phenyl)-N-(1-(2-chlorophenyl)-2-(cyclohexylamino)-2-oxoethyl)-2-(2-methyl-1H-imidazol-1-yl)acetamide]"
100 to 500,,1000 to 2000,Cc1nccn1CC(=O)N(c1cccc2[nH]ncc12)C(C(=O)NC1CCCCC1)c1ccccc1Cl (stereo not shown) [Compound 26]
100 to 500,500 to 1000,,COC(=O)N1C[C@H](N)C[C@H]1C(=O)N(c1cccc(F)c1)[C@H](C(=O)NC1CC(F)(F)C1)c1ccccc1Cl [Compound 65]
100 to 500,100 to 500,,O=C(NC1CCC(F)(F)CC1)C(c1ccccc1Cl)N(C(=O)Cn1cnnn1)c1cccc(F)c1 (stereo not shown) [Compound 49]
500 to 1000,1000 to 2000,,COC(=O)N1C[C@H](OCCN(C)C)C[C@H]1C(=O)N(c1cccc(F)c1)[C@H](C(=O)NC1CC(F)(F)C1)c1ccccc1Cl [Compound 104]
100 to 500,,1000 to 2000,CCS(=O)(=O)NCC(=O)N(c1cccc(F)c1)C(C(=O)NC1CCCCC1)c1ccccc1C (stereo not shown) [Compound 6]
500 to 1000,500 to 1000,,COC(=O)N[C@H](C(=O)N(c1cccc(F)c1)C(C(=O)NC1CC(F)(F)C1)c1ccccc1Cl)[C@@H](C)O (stereo partly shown) [Compound 99]
